Here are results for eleven compounds from patent US20230406865A1, “CRYSTAL FORM OF FREE BASE OF INHIBITOR CONTAINING BICYCLIC RING DERIVATIVE AND PREPARATION METHOD AND APPLICATION OF CRYSTAL FORM” (SHANGHAI HANSOH BIOMEDICAL CO., LTD., priority 2020, published 2023).

Assay [1] addresses T1, Ba/F3 KIF5B-RET cells (Homo sapiens, UniProt P07949).
T1 construct: fused on or other part: P33176 (Kinesin-1 heavy chain)
Kind of assay: Inhibition of proliferation of Ba/F3 KIF5B-RET cells (CellTiter-Glo). Type of assay: cell-based. Particulars: 72 to 144 hours. Here is the method:
When Ba/F3 KIF5B-RET cells were cultured to the appropriate cell density, cells were collected, and the cells were adjusted to the appropriate cell concentration using complete medium, and the cell suspension was spread in a 96-well plate, 90 μL per well, and placed in the wall of a 37° C., 5% CO2 incubator overnight; compound solutions of different concentrations were prepared using DMSO and culture medium; a solvent control was set, and the compound solution was added to a 96-well plate with […] at 37° C. in a 5% CO2 incubator for 72 to 144 hours, CellTiter-Glo solution was added thereto and mixed well by shaking, incubated for 10 minutes in the dark, and read by BioTek Synergy H1 microplate reader.
The IC50 values were obtained by using the luminescence signal values to calculate the inhibition rate, the concentrations and the inhibition rates were fitted to a nonlinear regression curve using Graphpad Prism software.
In general terms: Cellular ATP, detected with luciferase, serves as a proxy for viable cell number.

In assay [2] the target is T2, RET kinase (Homo sapiens, UniProt P07949).
T2 construct: purchased Carna 08-159
The assay can be described thus: HTRF kinase activity inhibition, RET wild-type. Type of assay: biochemical. The conditions noted are these: ATP at Km. The source says:
2.2 Experimental Reagents: • RET enzyme was purchased from Carna Company, and the article number was 08-159; • RET M918T enzyme was purchased from Carna Company, and the article number was 08-508; • KIF5B-RET was purchased from SignalChem Company, the article number was R02-19FG-05; • CCDC6-RET was purchased from SignalChem Company, the article number was R02-19BG-05; • RET V804M enzyme was purchased from Thermofisher Company, and the article number was PV6223; • RET V804L enzyme was purchased from Thermofisher Company, and the article number was PV4397; • HTRF KinEASE-TK kit was purchased from Cisbio Company, and the article number was 62TK0PEC; • ATP was purchased from Thermofisher Company, and the article number was PV3227; • 384-well plate was purchased from PerkinElmer Company, and the article number was 6007290.
In this experiment, a homogeneous time-resolved fluorescence (HTRF) method was used for the detection of compounds on RET kinase activity.
On the technique in general: TR-FRET usually uses a lanthanide donor and a delayed reading to cut background.

Assay [3] relates to TT cells (MTC, RET C634W). The assay can be described thus: Inhibition of proliferation of TT cells (CellTiter-Glo, 72 h). The format is cell-based. The conditions noted are these: Homo sapiens. Here is the method: TT cells were purchased from the cell bank of the Chinese Academy of Sciences.
When TT cells were cultured to the appropriate fusion level, TT cells were collected, and the cells were adjusted to the appropriate cell concentration using complete medium, and the cell suspension was spread in a 96-well plate, 90 μL per well, and placed to the wall of a 37° C., 5% CO2 incubator overnight; and compound solutions of different concentrations were prepared using DMSO and culture medium; and a solvent control was set, the compound solution was added to a 96-well plate, 10 μL per well, and placed to the wall of a 37° C., 5% CO2 incubator for 72 hours; CellTiter-Glo solution was added thereto and the mixture was mixed well by shaking, incubated for 10 minutes in the dark, and read by BioTek Synergy H1 microplate reader.
The IC50 values were obtained by using luminescence signal values to calculate the inhibition rate, the concentration and the inhibition rate were fitted to a nonlinear regression curve using Graphpad Prism software.

In assay [4] the target is T3, KDR kinase (Homo sapiens, UniProt P35968).
T3 construct: purchased Carna 08-191
The assay can be described thus: HTRF kinase activity inhibition, KDR. Particulars: for IC50: HTRF, ATP at Km; for Ratio (KDR/RET): KDR IC50 / RET IC50. Type of assay: biochemical. The source says:
2.2 Experimental Reagents: • KDR kinase was purchased from Carna Company, and the article number was 08-191; • HTRF KinEASE-TK kit was purchased from Cisbio Company, and the article number was 62TK0PEC; • ATP was purchased from Thermofisher Company, and the article number was PV3227; • 384-well plate was purchased from PerkinElmer Company, and the article number was 6007290.
In this experiment, the homogeneous time-resolved fluorescence (HTRF) method was used for the detection of compounds on KDR kinase activity.

T3 sequence (P35968 20-1356): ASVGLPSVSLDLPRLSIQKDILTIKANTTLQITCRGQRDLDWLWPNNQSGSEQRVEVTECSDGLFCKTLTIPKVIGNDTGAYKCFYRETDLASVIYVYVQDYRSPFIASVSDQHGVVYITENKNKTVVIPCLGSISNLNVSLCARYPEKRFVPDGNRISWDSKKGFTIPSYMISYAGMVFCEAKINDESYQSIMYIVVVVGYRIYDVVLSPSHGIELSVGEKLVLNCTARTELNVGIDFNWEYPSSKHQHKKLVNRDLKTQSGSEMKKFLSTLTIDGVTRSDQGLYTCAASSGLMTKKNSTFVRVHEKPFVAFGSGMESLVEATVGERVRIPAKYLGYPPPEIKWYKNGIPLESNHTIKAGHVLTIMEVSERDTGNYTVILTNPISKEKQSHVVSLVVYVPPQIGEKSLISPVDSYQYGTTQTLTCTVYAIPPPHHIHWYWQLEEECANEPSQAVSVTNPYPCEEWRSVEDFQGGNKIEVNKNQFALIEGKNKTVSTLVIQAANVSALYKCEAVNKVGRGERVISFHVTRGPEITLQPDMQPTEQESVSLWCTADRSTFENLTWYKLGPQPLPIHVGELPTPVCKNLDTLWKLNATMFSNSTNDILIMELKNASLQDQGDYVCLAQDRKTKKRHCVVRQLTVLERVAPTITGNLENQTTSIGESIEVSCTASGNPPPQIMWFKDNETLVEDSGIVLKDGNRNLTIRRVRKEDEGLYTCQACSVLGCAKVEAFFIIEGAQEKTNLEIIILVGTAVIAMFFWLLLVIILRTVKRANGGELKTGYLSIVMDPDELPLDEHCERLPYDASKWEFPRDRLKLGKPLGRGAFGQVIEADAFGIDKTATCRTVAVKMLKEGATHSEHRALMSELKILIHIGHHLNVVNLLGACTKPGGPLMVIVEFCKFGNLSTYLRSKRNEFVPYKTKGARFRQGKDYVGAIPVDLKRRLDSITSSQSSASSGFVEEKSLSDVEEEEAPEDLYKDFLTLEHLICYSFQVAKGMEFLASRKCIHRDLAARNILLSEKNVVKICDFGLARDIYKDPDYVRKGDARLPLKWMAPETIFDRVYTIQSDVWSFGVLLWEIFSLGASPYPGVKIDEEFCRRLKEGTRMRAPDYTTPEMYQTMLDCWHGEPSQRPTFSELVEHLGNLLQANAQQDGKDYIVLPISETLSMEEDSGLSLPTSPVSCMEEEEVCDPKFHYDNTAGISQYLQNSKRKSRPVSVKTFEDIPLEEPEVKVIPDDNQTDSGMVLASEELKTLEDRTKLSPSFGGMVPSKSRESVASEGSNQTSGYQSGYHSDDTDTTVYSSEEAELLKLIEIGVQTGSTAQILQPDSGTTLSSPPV
T1 sequence (P07949 whole entry, change not shown, the tested form may be a part): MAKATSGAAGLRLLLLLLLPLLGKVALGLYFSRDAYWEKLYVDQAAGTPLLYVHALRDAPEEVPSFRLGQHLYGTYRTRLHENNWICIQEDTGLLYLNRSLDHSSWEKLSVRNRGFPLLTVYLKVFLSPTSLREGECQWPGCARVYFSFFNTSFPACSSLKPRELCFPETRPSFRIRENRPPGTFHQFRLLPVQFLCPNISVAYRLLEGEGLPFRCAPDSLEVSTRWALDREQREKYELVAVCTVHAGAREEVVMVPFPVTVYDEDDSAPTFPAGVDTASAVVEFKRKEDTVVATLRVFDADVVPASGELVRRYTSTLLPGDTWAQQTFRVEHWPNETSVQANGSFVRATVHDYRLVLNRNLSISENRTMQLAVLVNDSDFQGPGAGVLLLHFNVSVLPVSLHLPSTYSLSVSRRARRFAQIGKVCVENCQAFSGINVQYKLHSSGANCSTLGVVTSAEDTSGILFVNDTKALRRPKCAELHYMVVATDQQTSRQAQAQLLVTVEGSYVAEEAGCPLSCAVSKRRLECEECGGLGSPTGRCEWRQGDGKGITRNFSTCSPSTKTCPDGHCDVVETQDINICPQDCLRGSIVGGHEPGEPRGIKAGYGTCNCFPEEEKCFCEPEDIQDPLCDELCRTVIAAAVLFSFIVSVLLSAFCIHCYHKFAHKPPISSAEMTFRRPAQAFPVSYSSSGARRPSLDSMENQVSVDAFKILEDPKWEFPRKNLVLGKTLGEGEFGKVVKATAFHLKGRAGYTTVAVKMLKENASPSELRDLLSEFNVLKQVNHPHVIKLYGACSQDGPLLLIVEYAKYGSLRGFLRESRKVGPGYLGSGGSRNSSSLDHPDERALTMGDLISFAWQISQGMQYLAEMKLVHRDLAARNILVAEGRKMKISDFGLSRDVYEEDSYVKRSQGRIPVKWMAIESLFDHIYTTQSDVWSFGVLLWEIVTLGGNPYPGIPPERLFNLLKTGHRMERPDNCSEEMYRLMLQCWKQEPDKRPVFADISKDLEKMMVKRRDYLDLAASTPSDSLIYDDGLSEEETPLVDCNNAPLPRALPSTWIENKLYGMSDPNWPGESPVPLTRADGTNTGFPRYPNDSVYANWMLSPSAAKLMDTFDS
T2 sequence (P07949 29-1114): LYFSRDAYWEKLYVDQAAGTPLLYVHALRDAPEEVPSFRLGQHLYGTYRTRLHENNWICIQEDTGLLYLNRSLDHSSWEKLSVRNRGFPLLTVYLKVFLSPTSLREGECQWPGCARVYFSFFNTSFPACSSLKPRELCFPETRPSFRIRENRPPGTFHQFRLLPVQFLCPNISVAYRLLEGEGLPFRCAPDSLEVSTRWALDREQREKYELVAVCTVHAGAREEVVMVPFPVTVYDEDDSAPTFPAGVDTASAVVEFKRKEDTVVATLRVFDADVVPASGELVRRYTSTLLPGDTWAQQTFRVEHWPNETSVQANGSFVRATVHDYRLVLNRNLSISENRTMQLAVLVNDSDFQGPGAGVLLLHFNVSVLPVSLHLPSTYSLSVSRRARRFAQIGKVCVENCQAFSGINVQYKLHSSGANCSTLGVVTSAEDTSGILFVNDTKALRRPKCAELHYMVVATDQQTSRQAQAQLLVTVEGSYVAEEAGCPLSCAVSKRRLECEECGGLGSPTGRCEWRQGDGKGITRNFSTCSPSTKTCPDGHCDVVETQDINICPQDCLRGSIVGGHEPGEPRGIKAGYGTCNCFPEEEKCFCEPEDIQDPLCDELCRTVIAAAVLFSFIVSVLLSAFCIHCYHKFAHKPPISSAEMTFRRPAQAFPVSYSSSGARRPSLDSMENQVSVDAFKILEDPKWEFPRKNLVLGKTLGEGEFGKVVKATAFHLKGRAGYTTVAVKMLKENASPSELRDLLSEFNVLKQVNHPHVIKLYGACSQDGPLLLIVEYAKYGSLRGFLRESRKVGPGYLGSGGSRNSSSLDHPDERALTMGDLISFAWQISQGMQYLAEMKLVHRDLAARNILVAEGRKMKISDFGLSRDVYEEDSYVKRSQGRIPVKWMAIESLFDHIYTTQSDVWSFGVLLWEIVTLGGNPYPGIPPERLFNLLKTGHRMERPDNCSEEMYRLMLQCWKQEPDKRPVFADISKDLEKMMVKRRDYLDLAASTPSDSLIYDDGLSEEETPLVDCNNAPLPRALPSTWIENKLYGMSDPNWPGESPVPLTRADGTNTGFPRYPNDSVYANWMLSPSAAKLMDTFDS

Broadly, the IC50 is the concentration that inhibits the measured activity by half. In the case of `COc1ccc(CN2C3CC2CN(c2ccc(-c4cc(C#CC(O)C5CC5)cn5ncc(C#N)c45)cn2)C3)cn1` (centres unmarked) [Embodiment 19, 6-(3-Cyclopropyl-3-hydroxyprop-1-yn-1-yl)-4-(6-(6-((6-methoxypyridin-3-yl)methyl)-3,6-diazabicyclo[3.1.1]heptan-3-yl)pyridin-3-yl)pyrazolo[1,5-a]pyridine-3-carbonitrile], the IC50 in assay [1] was 27.8 nM.
Consider `COc1ccc(CN2C3CC2CN(c2ccc(-c4cc(C#C[C@H](C)O)cn5ncc(C#N)c45)cn2)C3)cn1` [Embodiment 21, 6-((S)-3-Hydroxybut-1-yn-1-yl)-4-(6-(6-((6-methoxypyridin-3-yl)methyl)-3,6-diazabicyclo[3.1.1]heptan-3-yl)pyridin-3-yl)pyrazolo[1,5-a]pyridine-3-carbonitrile], for which the IC50 in assay [2] amounted to 0.41 nM; in assay [3], 18.1 nM; in assay [4] it was 9.4 nM. Moreover, the “Ratio (KDR/RET)” value in assay [4] amounted to 23.
For `CC(C)(O)C#Cc1cc(-c2ccc(N3CC4CC(C3)N4Cc3ccc(OC4CC4)nc3)nc2)c2c(C#N)cnn2c1` [Embodiment 26, 4-(6-(6-((6-Cyclopropoxypyridin-3-yl)methyl)-3,6-diazabicyclo[3.1.1]heptan-3-yl)pyridin-3-yl)-6-(3-hydroxy-3-methylbut-1-yn-1-yl)pyrazolo[1,5-a]pyridine-3-carbonitrile], the IC50 in assay [3] turned out to be 19 nM.
For `COc1ccc(CN2C3CC2CN(c2ccc(-c4cc(OCC5(C#N)CC5)cn5ncc(C#N)c45)cn2)C3)cn1` [Embodiment 27, 6-((1-Cyanocyclopropyl)methoxy)-4-(6-(6-((6-methoxypyridin-3-yl)methyl)-3,6-diazabicyclo[3.1.1]heptan-3-yl)pyridin-3-yl)pyrazolo[1,5-a]pyridine-3-carbonitrile], the IC50 in assay [2] was 0.32 nM; in assay [4], 88 nM; in assay [1], 15.9 nM. Moreover, in assay [4], the “Ratio (KDR/RET)” value was determined as 280.
As for `COc1ccc(CN2C3CC2CN(c2ccc(-c4cc(N5CC6(C5)CC(C)(O)C6)cn5ncc(C#N)c45)cn2)C3)cn1` [Embodiment 32, 6-(6-Hydroxy-6-methyl-2-azaspiro[3.3]heptan-2-yl)-4-(6-(6-((6-methoxypyridin-3-yl)methyl)-3,6-diazabicyclo[3.1.1]heptan-3-yl)pyridin-3-yl)pyrazolo[1,5-a]pyridine-3-carbonitrile], the IC50 was found to be 0.49 nM in assay [2], 2.07 nM in assay [3] and 1.8 nM in assay [4]. Further, the “Ratio (KDR/RET)” value in assay [4] is given as 4.
Turning to `[2H]C([2H])([2H])Oc1ccc(CN2C3CC2CN(c2ccc(-c4cc(N5CC(C(C)(C)O)C5)cn5ncc(C#N)c45)cn2)C3)cn1` [Embodiment 41, 6-(3-(2-Hydroxypropan-2-yl)azetidin-1-yl)-4-(6-(6-((6-(methoxy-d3)pyridin-3-yl)methyl)-3,6-diazabicyclo[3.1.1]heptan-3-yl)pyridin-3-yl)pyrazolo[1,5-a]pyridine-3-carbonitrile], the IC50 is 0.4 nM in assay [2], 9.45 nM in assay [3] and 11 nM in assay [4]. Further, the “Ratio (KDR/RET)” value in assay [4] stood at 27.
As for `COc1ccc(CN2C3CC2CN(c2ccc(-c4cc(OCC56CC(O)(C5)C6)cn5ncc(C#N)c45)cn2)C3)cn1` [Embodiment 47, 6-((3-Hydroxybicyclo[1.1.1]pentan-1-yl)methoxy)-4-(6-(6-((6-methoxypyridin-3-yl)methyl)-3,6-diazabicyclo[3.1.1]heptan-3-yl)pyridin-3-yl)pyrazolo[1,5-a]pyridine-3-carbonitrile], the IC50 in assay [2] came to 0.4 nM; in assay [3], 13.3 nM; in assay [4], 176 nM. The “Ratio (KDR/RET)” value in assay [4] amounted to 438.
In the case of `COc1ccc(CN2C3CC2CN(c2ccc(-c4cc(C#CCC(C)(C)O)cn5ncc(C#N)c45)cn2)C3)cn1` [Embodiment 48, 6-(4-Hydroxy-4-methylpent-1-yn-1-yl)-4-(6-(6-((6-methoxypyridin-3-yl)methyl)-3,6-diazabicyclo[3.1.1]heptan-3-yl)pyridin-3-yl)pyrazolo[1,5-a]pyridine-3-carbonitrile], the concentration for half-maximal inhibition (IC50) in assay [2] stood at 0.42 nM; in assay [3] it was 19.6 nM; in assay [4], 13 nM. Further, in assay [4], the “Ratio (KDR/RET)” value was determined as 30.
The like results for `COc1ccc(CN2C3CC2CN(c2ccc(-c4cc(OCC5CCS(=N)(=O)CC5)cn5ncc(C#N)c45)cn2)C3)cn1` (centres unmarked) [Embodiment 54, 6-((1-Imino-1-hydroxyhexahydro-1l6-thiopyran-4-yl)methoxy)-4-(6-(6-((6-methoxypyridin-3-yl)methyl)-3,6-diazabicyclo[3.1.1]heptan-3-yl)pyridin-3-yl)pyrazolo[1,5-a]pyridine-3-carbonitrile] were, in that order, 0.34 nM, 9 nM, 9 nM and 26.
In the case of `COCC(C)(O)C#Cc1cc(-c2ccc(N3CC4CC(C3)N4Cc3cnc(OC)c(F)c3)nc2)c2c(C#N)cnn2c1` (centres unmarked) [Embodiment 61, 4-(6-(6-((5-Fluoro-6-methoxypyridin-3-yl)methyl)-3,6-diazabicyclo[3.1.1]heptan-3-yl)pyridin-3-yl)-6-(3-hydroxy-4-methoxy-3-methylbut-1-yn-1-yl)pyrazolo[1,5-a]pyridine-3-carbonitrile], the IC50 was 0.35 nM in assay [2], 11.2 nM in assay [4] and 16.8 nM in assay [1]. In assay [4], the “Ratio (KDR/RET)” value is given as 32.
As for `CC1(NC(=O)c2ncccc2Cl)CCN(c2ccc(-c3cc(OCC4(N)CC4)cn4ncc(C#N)c34)cn2)CC1` [Embodiment 91, N-(1-(5-(6-((1-aminocyclopropyl)methoxy)-3-cyanopyrazolo[1,5-a]pyridin-4-yl)pyridin-2-yl)-4-methylpiperidin-4-yl)-3-chloropicolinamide], the results for the IC50 in assay [2], in assay [3] and in assay [4] were 1.54 nM, 29.6 nM and 204 nM, respectively. In assay [4], the “Ratio (KDR/RET)” value is given as 133.
